This assay addresses AMPK. In words: AMPK activation, enzyme-linked immunosorbent assay. Type of assay: biochemical. As to conditions: ELISA. In general terms: ELISA stands for enzyme-linked immunosorbent assay.

On to `CN(C(=O)c1cc2cc(OC3CCN(c4ccc(C(F)(F)F)cc4)CC3)ccc2o1)C1CCN(Cc2ccccc2C#N)CC1` [Compound 111, N-(1-(2-cyanobenzyl)piperidin-4-yl)-N-methyl-5-(1-(4-(trifluoromethyl)phenyl)piperidin-4-yloxy)benzofuran-2-carboxamide], for which, under “Table 4, AMPK activation”, the EC50 (as a rule, the concentration giving half of the maximal effect) was 100 to 500 nM.

Compound `O=C(NC1CCN(Cc2ccccn2)CC1)c1sc2cc(OC3CCN(c4ccc(C(F)(F)F)cc4)CC3)ccc2c1Cl` [Compound 153, 3-chloro-N-(1-(pyridin-2-ylmethyl)piperidin-4-yl)-6-(1-(4-(trifluoromethyl)phenyl)piperidin-4-yloxy)benzo[b]thiophene-2-carboxamide] gave a concentration giving a half-maximal response (EC50) (Table 5, AMPK activation) of 100 to 500 nM.

Take `O=C(NC1CCN(Cc2ccc(C(F)(F)F)cc2)CC1)c1cc2ccc(OC3CCN(c4ccc(C(F)(F)F)cc4)CC3)cc2o1` [Compound 99, N-(1-(4-(trifluoromethyl)benzyl)piperidin-4-yl)-6-(1-(4-(trifluoromethyl)phenyl)piperidin-4-yloxy)benzofuran-2-carboxamide]: where the note is “Table 4, AMPK activation”, the EC50 is less than 100 nM.

For `O=C(NC1CCN(Cc2ccncc2)CC1)c1ccc(OC2CCN(c3ccc(C(F)(F)F)cc3)CC2)nc1` [Compound 10, N-(1-(pyridin-4-ylmethyl)piperidin-4-yl)-6-(1-(4-(trifluoromethyl)phenyl)piperidin-4-yloxy)nicotinamide], the half-maximal effective concentration (EC50) (Table 2, AMPK activation) is less than 100 nM.

Consider `O=C(N[C@H]1CCN(Cc2ccncc2)C1)c1cc2cc(OC3CCN(Cc4ccc(Cl)cc4)CC3)ccc2o1` [Compound 129, (S)-5-(1-(4-chlorobenzyl)piperidin-4-yloxy)-N-(1-(pyridin-4-ylmethyl)pyrrolidin-3-yl)benzofuran-2-carboxamide], for which, under “Table 4, AMPK activation”, the EC50 lay within 1000 to 10000 nM.

`O=C(N[C@@H]1CCNC1)c1ccc(OC2CCN(c3ccc(C(F)(F)F)cc3)CC2)cn1` [Compound 24, (R)-N-(pyrrolidin-3-yl)-5-(1-(4-(trifluoromethyl)phenyl)piperidin-4-yloxy)picolinamide] yielded an EC50 (Table 2, AMPK activation) of 5000 to 10000 nM.

`N#Cc1ccc(CN2CCC(Oc3ccc(S(=O)(=O)NC4CCN(Cc5ccncc5)CC4)cn3)CC2)cc1` [Compound 53, 6-(1-(4-cyanobenzyl)piperidin-4-yloxy)-N-(1-(pyridin-4-ylmethyl)piperidin-4-yl)pyridine-3-sulfonamide] displayed an EC50 (Table 3, AMPK activation) of 100 to 500 nM.

Where the note is “Table 4, AMPK activation”, `O=C(NC1CCN(Cc2ccncc2)CC1)c1cc2cc(OC3CCN(Cc4ccc(Cl)cc4)CC3)ccc2o1` [Compound 77, 5-(1-(4-chlorobenzyl)piperidin-4-yloxy)-N-(1-(pyridin-4-ylmethyl)piperidin-4-yl)benzofuran-2-carboxamide] registered an EC50 of 100 to 500 nM.

Take `O=C(NC1CCN(C(=O)c2ccncc2)CC1)c1cc2ccc(OC3CCN(c4ccc(C(F)(F)F)cc4)CC3)cc2o1` [Compound 112, N-(1-isonicotinoylpiperidin-4-yl)-6-(1-(4-(trifluoromethyl)phenyl)piperidin-4-yloxy)benzofuran-2-carboxamide]: the EC50 (Table 4, AMPK activation) was less than 100 nM.

With `CN(C)c1ccc(CN2CCC(NC(=O)c3ccc(OC4CCN(c5ccc(C(F)(F)F)cc5)CC4)cn3)CC2)cc1` [Compound 39, N-(1-(4-(dimethylamino)benzyl)piperidin-4-yl)-5-(1-(4-(trifluoromethyl)phenyl)piperidin-4-yloxy)picolinamide], the concentration giving a half-maximal response (EC50) (Table 2, AMPK activation) fell in the range of 100 to 500 nM.

`O=C(N[C@H]1CCNC1)c1cc2cc(OC3CCN(Cc4ccc(Cl)cc4)CC3)ccc2o1` [Compound 128, (S)-5-(1-(4-chlorobenzyl)piperidin-4-yloxy)-N-(pyrrolidin-3-yl)benzofuran-2-carboxamide]: the EC50 (Table 4, AMPK activation) was more than 50000 nM.

Consider `N#Cc1cccc(CN2CCC(NC(=O)c3cc4ccc(OC5CCN(c6ccc(C(F)(F)F)cc6)CC5)cc4s3)CC2)c1` [Compound 145, N-(1-(3-cyanobenzyl)piperidin-4-yl)-6-(1-(4-(trifluoromethyl)phenyl)piperidin-4-yloxy)benzo[b]thiophene-2-carboxamide], for which the EC50 (Table 5, AMPK activation) was in the range of 100 to 500 nM.

As for `O=C(c1ccc(F)cc1)N1CCC(NS(=O)(=O)c2ccc(OC3CCN(c4ccc(C(F)(F)F)cc4)CC3)nc2)CC1` [Compound 60, N-(1-(4-fluorobenzoyl)piperidin-4-yl)-6-(1-(4-(trifluoromethyl)phenyl)piperidin-4-yloxy)pyridine-3-sulfonamide], the concentration for a half-maximal effect (EC50) (Table 3, AMPK activation) was more than 50000 nM.

`CC(C)(C)OC(=O)N1CCC(NC(=O)c2cc3ccc(OC4CCN(c5ccc(OC(F)(F)F)cc5)CC4)cc3o2)CC1` [Compound 81, tert-butyl 4-(6-(1-(4-(trifluoromethoxy)phenyl)piperidin-4-yloxy)benzofuran-2-carboxamido)piperidine-1-carboxylate] gave an EC50 (Table 4, AMPK activation) of 100 to 500 nM.

In the case of `CC(C)(C)OC(=O)N1CCC(NC(=O)c2cc3cc(OC4CCN(c5ccc(C(F)(F)F)cc5)CC4)ccc3o2)CC1` [Compound 85, tert-butyl 4-(5-(1-(4-(trifluoromethyl)phenyl)piperidin-4-yloxy)benzofuran-2-carboxamido)piperidine-1-carboxylate], for the setting “Table 4, AMPK activation”, the EC50 was 500 to 1000 nM.

The compound `COC(=O)c1ccc(CN2CCC(NC(=O)c3ccc(OC4CCN(c5ccc(C(F)(F)F)cc5)CC4)nc3)CC2)cc1` [Compound 45, methyl 4-((4-(6-(1-(4-(trifluoromethyl)phenyl)piperidin-4-yloxy)nicotinamido)piperidin-1-yl)methyl)benzoate] gave an EC50 (Table 2, AMPK activation) of more than 10000 nM.

In turn, `O=C(N[C@@H]1CCN(Cc2ccncc2)C1)c1cc2cc(OC3CCN(c4ccc(C(F)(F)F)cc4)CC3)ccc2o1` [Compound 122, (R)-N-(1-(pyridin-4-ylmethyl)pyrrolidin-3-yl)-5-(1-(4-(trifluoromethyl)phenyl)piperidin-4-yloxy)benzofuran-2-carboxamide] gave an EC50 (Table 4, AMPK activation) of 100 to 500 nM.

On to `CN(C(=O)c1cc2cc(OC3CCN(c4ccc(C(F)(F)F)cc4)CC3)ccc2o1)C1CCN(Cc2ccccn2)CC1` [Compound 117, N-methyl-N-(1-(pyridin-2-ylmethyl)piperidin-4-yl)-5-(1-(4-(trifluoromethyl)phenyl)piperidin-4-yloxy)benzofuran-2-carboxamide], for which the EC50 (Table 4, AMPK activation) was less than 100 nM.

`O=C(NC1CCN(Cc2ccccn2)CC1)c1cc2ccc(OC3CCN(c4ccc(C(F)(F)F)cc4)CC3)cc2o1` [Compound 93, N-(1-(pyridin-2-ylmethyl)piperidin-4-yl)-6-(1-(4-(trifluoromethyl)phenyl)piperidin-4-yloxy)benzofuran-2-carboxamide] had a concentration giving a half-maximal response (EC50) (Table 4, AMPK activation) of 100 to 500 nM.

Take `O=C(NC1CCN(Cc2ccncc2)CC1)c1ccnc(OC2CCN(c3ccc(C(F)(F)F)cc3)CC2)c1` [Compound 20, N-(1-(pyridin-4-ylmethyl)piperidin-4-yl)-2-(1-(4-(trifluoromethyl)phenyl)piperidin-4-yloxy)isonicotinamide]: the EC50 (Table 2, AMPK activation) lay within 500 to 1000 nM.

Consider `COC(=O)c1ccc(CN2CCC(NC(=O)c3ccc(OC4CCN(c5ccc(C#N)cc5)CC4)cn3)CC2)cc1` [Compound 7, methyl 4-((4-(5-(1-(4-cyanophenyl)piperidin-4-yloxy)picolinamido)piperidin-1-yl)methyl)benzoate], for which the half-maximal effective concentration (EC50) (Table 2, AMPK activation) is less than 100 nM.

`N#Cc1ccc(CN2CCC(NC(=O)c3cc4ccc(OC5CCN(c6ccc(C(F)(F)F)cc6)CC5)cc4s3)CC2)cc1` [Compound 144, N-(1-(4-cyanobenzyl)piperidin-4-yl)-6-(1-(4-(trifluoromethyl)phenyl)piperidin-4-yloxy)benzo[b]thiophene-2-carboxamide] gave an EC50 (Table 5, AMPK activation) of less than 100 nM.

Consider `O=C(N[C@@H]1CCNC1)c1cc2cc(OC3CCN(c4ccc(C(F)(F)F)cc4)CC3)ccc2o1` [Compound 121, (R)-N-(pyrrolidin-3-yl)-5-(1-(4-(trifluoromethyl)phenyl)piperidin-4-yloxy)benzofuran-2-carboxamide], for which the EC50 (Table 4, AMPK activation) is more than 50000 nM.

As to `Cc1c(C(=O)NC2CCN(Cc3ccccn3)CC2)oc2cc(OC3CCN(c4ccc(C(F)(F)F)cc4)CC3)ccc12` [Compound 68, 3-methyl-N-(1-(pyridin-2-ylmethyl)piperidin-4-yl)-6-(1-(4-(trifluoromethyl)phenyl)piperidin-4-yloxy)benzofuran-2-carboxamide], the EC50 (Table 4, AMPK activation) is less than 100 nM.

Where the note is “Table 6, AMPK activation”, `FC(F)(F)c1ccc(N2CCC(Oc3ccc4c(c3)CCC4NC3CCNCC3)CC2)cc1` (stereo not drawn) [Compound 157, N-(5-(1-(4-(trifluoromethyl)phenyl)piperidin-4-yloxy)-2,3-dihydro-1H-inden-1-yl)piperidin-4-amine] came in with an EC50 of more than 100000 nM.

`CN(C(=O)c1cc2cc(OC3CCN(c4ccc(C(F)(F)F)cc4)CC3)ccc2o1)C1CCN(Cc2cccc(C#N)c2)CC1` [Compound 110, N-(1-(3-cyanobenzyl)piperidin-4-yl)-N-methyl-5-(1-(4-(trifluoromethyl)phenyl)piperidin-4-yloxy)benzofuran-2-carboxamide]: where the note is “Table 4, AMPK activation”, the EC50 is less than 100 nM.

Compound `N#Cc1ccc(CN2CCC(NC(=O)c3sc4cc(OC5CCN(c6ccc(C(F)(F)F)cc6)CC5)ccc4c3Cl)CC2)cc1` [Compound 154, 3-chloro-N-(1-(4-cyanobenzyl)piperidin-4-yl)-6-(1-(4-(trifluoromethyl)phenyl)piperidin-4-yloxy)benzo[b]thiophene-2-carboxamide] displayed a half-maximal effective concentration (EC50) (Table 5, AMPK activation) of less than 100 nM.

The compound `Cc1c(C(=O)NC2CCN(Cc3cccnc3)CC2)oc2cc(OC3CCN(c4ccc(C(F)(F)F)cc4)CC3)ccc12` [Compound 69, 3-methyl-N-(1-(pyridin-3-ylmethyl)piperidin-4-yl)-6-(1-(4-(trifluoromethyl)phenyl)piperidin-4-yloxy)benzofuran-2-carboxamide] yielded an EC50 (Table 4, AMPK activation) of less than 100 nM.

For `Cc1c(C(=O)NC2CCN(Cc3ccc(F)cc3)CC2)oc2cc(OC3CCN(c4ccc(C(F)(F)F)cc4)CC3)ccc12` [Compound 63, N-(1-(4-fluorobenzyl)piperidin-4-yl)-3-methyl-6-(1-(4-(trifluoromethyl)phenyl)piperidin-4-yloxy)benzofuran-2-carboxamide], where the note is “Table 4, AMPK activation”, the half-maximal effective concentration (EC50) was less than 100 nM.

For `N#Cc1ccc(N2CCC(Oc3ccc(C(=O)NC4CCN(Cc5ccncc5)CC4)nc3)CC2)cc1` [Compound 1, 5-(1-(4-cyanophenyl)piperidin-4-yloxy)-N-(1-(pyridin-4-ylmethyl)piperidin-4-yl)picolinamide], the EC50 (Table 2, AMPK activation) is 100 to 500 nM.

Source of the values: patent US9174964B2, “AMPK-activating piperidinyloxy-substituted 2,3-dihydro-1H-indene-1-amine compounds and pharmaceutical compositions including the same” (Rigel Pharmaceuticals, Inc., priority 2007, dated 2015).
